Source: US10287301B2 (Achillion Pharmaceuticals, Inc., priority 2015, dated 2019)

Molecular target: Human Factor D (Homo sapiens (Human), UniProt P00746)
Assay: Human Factor D Assay
Format: biochemical
Conditions: Human Factor D 80 nM, substrate Z-L-Lys-SBzl; read-out: IC50
Description: Human Factor D (purified from human serum, Complement Technology, Inc.) at 80 nM final concentration was incubated with test compound at various concentrations for 5 minutes at room temperature in 50 mM Tris, 1M NaCl, pH 7.5. A synthetic substrate Z-L-Lys-SBzl and DTNB (Ellman's reagent) are added to final concentrations of 100 μM each. […] IC50 values are calculated by nonlinear regression of complement Factor D reaction rates as a function of test compound concentration.

Sequence of Human Factor D (P00746 26-253): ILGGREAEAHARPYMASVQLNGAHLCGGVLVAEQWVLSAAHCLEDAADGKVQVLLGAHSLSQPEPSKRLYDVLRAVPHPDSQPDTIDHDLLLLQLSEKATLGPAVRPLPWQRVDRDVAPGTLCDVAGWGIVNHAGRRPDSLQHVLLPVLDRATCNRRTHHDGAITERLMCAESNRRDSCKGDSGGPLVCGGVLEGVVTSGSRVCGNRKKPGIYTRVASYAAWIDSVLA

## NC(=O)c1nn(CC(=O)N2C[C@H](F)C[C@H]2C(=O)NCc2cc(F)cc(Cl)c2)c2ccc(-c3ccnnc3)cc12 [Compound 62, 1-(2-((2S,4R)-2-(3-chloro-5-fluorobenzyl-carbamoyl)-4-fluoropyrrolidin-1-yl)-2-oxoethyl)-5-(pyridazin-4-yl)-1H-indazole-3-carboxamide]
  IC50: < 1 µM

## CC(=O)c1cn(CC(=O)N2C[C@H](F)C[C@H]2C(=O)Nc2ccccc2N2CCOC2=O)c2ccc(-c3ccnnc3)cc12 [Compound 64, (2S,4R)-1-(2-(3-acetyl-5-(pyridazin-4-yl)-1H-indol-1-yl)acetyl)-4-fluoro-N-(2-(2-oxooxazolidin-3-yl)phenyl) pyrrolidine-2-carboxamide]
  IC50: > 10 µM

## NC(=O)c1nn(CC(=O)N2C[C@H](F)C[C@H]2C(=O)Nc2ccccc2N2CCOC2=O)c2ccc(-c3ccnnc3)cc12 [Compound 65, 1-(2-((2S,4R)-4-fluoro-2-(2-(2-oxooxazolidin-3-yl)phenylcarbamoyl)pyrrolidin-1-yl)-2-oxoethyl)-5-(pyridazin-4-yl)-1H-indazole-3-carboxamide]
  IC50: > 10 µM

## CC(=O)c1cn(CC(=O)N2C[C@H](F)C[C@H]2C(=O)Nc2cncc(Cl)c2)c2ccc(-c3ccnnc3)cc12 [Compound 66, (2S,4R)-1-(2-(3-acetyl-5-(pyridazin-4-yl)-1H-indol-1-yl)acetyl)-N-(5-chloropyridin-3-yl)-4-fluoropyrrolidine-2-carboxamide]
  IC50: < 1 µM

## CC(=O)c1cn(CC(=O)N2C[C@H](F)C[C@H]2C(=O)Nc2cncc(Br)c2)c2ccc(-c3ccnnc3)cc12 [Compound 68, (2S,4R)-1-(2-(3-acetyl-5-(pyridazin-4-yl)-1H-indol-1-yl)acetyl)-N-(5-bromopyridin-3-yl)-4-fluoropyrrolidine-2-carboxamide]
  IC50: < 1 µM

## NC(=O)c1nn(CC(=O)N2C[C@H](F)C[C@H]2C(=O)Nc2nnc(-c3ccc(Cl)c(Cl)c3)s2)c2ccc(-c3ccnnc3)cc12 [Compound 69, 1-(2-((2S,4R)-2-(5-(3,4-dichlorophenyl)-1,3,4-thiadiazol-2-ylcarbamoyl)-4-fluoropyrrolidin-1-yl)-2-oxoethyl)-5-(pyridazin-4-yl)-1H-indazole-3-carboxamide]
  IC50: > 10 µM

## NCc1ccc(NC(=O)[C@@H]2C[C@@H](F)CN2C(=O)Cn2nc(C(N)=O)c3cc(-c4ccnnc4)ccc32)cc1 [Compound 70, 1-(2-((2S,4R)-2-(4-(aminomethyl)phenylcarbamoyl)-4-fluoropyrrolidin-1-yl)-2-oxoethyl)-5-(pyridazin-4-yl)-1H-indazole-3-carboxamide]
  IC50: > 10 µM

## Cc1ccnn1-c1ccccc1NC(=O)[C@@H]1C[C@@H](F)CN1C(=O)Cn1nc(C(N)=O)c2cc(-c3ccnnc3)ccc21 [Compound 71, 1-(2-((2S,4R)-4-fluoro-2-(2-(5-methyl-1H-pyrazol-1-yl)phenylcarbamoyl)pyrrolidin-1-yl)-2-oxoethyl)-5-(pyridazin-4-yl)-1H-indazole-3-carboxamide]
  IC50: > 10 µM

## CC(=O)c1cn(CC(=O)N2C[C@H](F)C[C@H]2C(=O)Nc2ccccc2-n2nccc2C)c2ccc(-c3ccnnc3)cc12 [Compound 72, (2S,4R)-1-(2-(3-acetyl-5-(pyridazin-4-yl)-1H-indol-1-yl)acetyl)-4-fluoro-N-(2-(5-methyl-1H-pyrazol-1-yl)phenyl) pyrrolidine-2-carboxamide]
  IC50: > 10 µM

## NC(=O)c1nn(CC(=O)N2C[C@H](F)C[C@H]2C(=O)Nc2cccc(OCc3ccccc3)n2)c2ccc(-c3ccnnc3)cc12 [Compound 73, 1-(2-((2S,4R)-2-(6-(benzyloxy)pyridin-2-ylcarbamoyl)-4-fluoropyrrolidin-1-yl)-2-oxoethyl)-5-(pyridazin-4-yl)-1H-indazole-3-carboxamide]
  IC50: > 10 µM

## CC(=O)c1cn(CC(=O)N2C[C@H](F)C[C@H]2C(=O)N[C@H]2CCCC[C@@H]2OCc2ccccc2)c2ccc(-c3ccnnc3)cc12 [Compound 74, (2S,4R)-1-(2-(3-acetyl-5-(pyridazin-4-yl)-1H-indol-1-yl)acetyl)-N-((1S,2S)-2-(benzyloxy)cyclohexyl)-4-fluoropyrrolidine-2-carboxamide]
  IC50: > 10 µM

## CC(=O)c1cn(CC(=O)N2C[C@H](F)C[C@H]2C(=O)Nc2ccc3c(c2)OC(C)(C)C3)c2ccc(-c3ccnnc3)cc12 [Compound 75, (2S,4R)-1-(2-(3-acetyl-5-(pyridazin-4-yl)-1H-indol-1-yl)acetyl)-N-(2,2-dimethyl-2,3-dihydrobenzofuran-6-yl)-4-fluoropyrrolidine-2-carboxamide]
  IC50: < 1 µM

## CC1(C)Cc2ccc(NC(=O)[C@@H]3C[C@@H](F)CN3C(=O)Cn3nc(C(N)=O)c4cc(-c5ccnnc5)ccc43)cc2O1 [Compound 76, 1-(2-((2S,4R)-2-(2,2-dimethyl-2,3-dihydrobenzofuran-6-ylcarbamoyl)-4-fluoropyrrolidin-1-yl)-2-oxoethyl)-5-(pyridazin-4-yl)-1H-indazole-3-carboxamide]
  IC50: < 1 µM

## CC(=O)c1cn(CC(=O)N2C[C@H](F)C[C@H]2C(=O)N[C@H]2CCC[C@@H]2OCc2ccccc2)c2ccc(-c3ccnnc3)cc12 [Compound 77, (2S,4R)-1-(2-(3-acetyl-5-(pyridazin-4-yl)-1H-indol-1-yl)acetyl)-N-((1S,2S)-2-(benzyloxy)cyclopentyl)-4-fluoropyrrolidine-2-carboxamide]
  IC50: > 10 µM

## NC(=O)c1nn(CC(=O)N2C[C@H](F)C[C@H]2C(=O)N[C@H]2CCCC[C@@H]2OCc2ccccc2)c2ccc(-c3ccnnc3)cc12 [Compound 78, 1-(2-((2S,4R)-2-((1S,2S)-2-(benzyloxy)cyclohexyl-carbamoyl)-4-fluoropyrrolidin-1-yl)-2-oxoethyl)-5-(pyridazin-4-yl)-1H-indazole-3-carboxamide]
  IC50: > 10 µM

## CNC(=O)[C@@H]1C[C@@H](F)CN1C(=O)Cn1nc(C(N)=O)c2cc(-c3ccnnc3)ccc21 [Compound 79, 1-(2-((2S,4R)-4-fluoro-2-(methylcarbamoyl)pyrrolidin-1-yl)-2-oxoethyl)-5-(pyridazin-4-yl)-1H-indazole-3-carboxamide]
  IC50: > 10 µM

## COc1ncc(-c2ccc3c(c2)c(C(C)=O)cn3CC(=O)N2[C@@H]3C[C@@H]3C[C@H]2C(=O)Nc2cccc(-c3ccccc3Cl)c2F)cn1 [Compound 80, (1R,3S,5R)-2-(2-(3-acetyl-5-(2-methoxypyrimidin-5-yl)-1H-indol-1-yl)acetyl)-N-(2′-chloro-2-fluorobiphenyl-3-yl)-2-azabicyclo[3.1.0] hexane-3-carboxamide]
  IC50: < 1 µM

## COc1ncc(-c2ccc3c(c2)c(C(C)=O)cn3CC(=O)N2[C@@H]3C[C@@H]3C[C@H]2C(=O)Nc2cccc(Br)n2)cn1 [Compound 81, (1R,3S,5R)-2-(2-(3-acetyl-5-(2-methoxypyrimidin-5-yl)-1H-indol-1-yl)acetyl)-N-(6-bromopyridin-2-yl)-2-azabicyclo[3.1.0] hexane-3-carboxamide]
  IC50: < 1 µM

## CC(=O)c1cn(CC(=O)N2C[C@H](F)C[C@H]2C(=O)Nc2cccc(Br)n2)c2ccc(-c3cnc(C#N)nc3)cc12 [Compound 82, (2S,4R)-1-(2-(3-acetyl-5-(2-cyanopyrimidin-5-yl)-1H-indol-1-yl)acetyl)-N-(6-bromopyridin-2-yl)-4-fluoropyrrolidine-2-carboxamide]
  IC50: < 1 µM

## CC(=O)c1cn(CC(=O)N2C[C@H](F)C[C@H]2C(=O)Nc2cccc(Br)n2)c2ccc(-c3cnc(F)nc3)cc12 [Compound 83, (2S,4R)-1-(2-(3-acetyl-5-(2-fluoropyrimidin-5-yl)-1H-indol-1-yl)acetyl)-N-(6-bromopyridin-2-yl)-4-fluoropyrrolidine-2-carboxamide]
  IC50: < 1 µM

## CC(=O)c1cn(CC(=O)N2C[C@H](F)C[C@H]2C(=O)Nc2cccc(Br)n2)c2ccc(-c3cnc(C)nc3)cc12 [Compound 84, (2S,4R)-1-(2-(3-acetyl-5-(2-methylpyrimidin-5-yl)-1H-indol-1-yl)acetyl)-N-(6-bromopyridin-2-yl)-4-fluoropyrrolidine-2-carboxamide]
  IC50: < 1 µM

## CC(=O)c1cn(CC(=O)N2C[C@H](F)C[C@H]2C(=O)Nc2ccc(CN)cc2)c2ccc(-c3ccnnc3)cc12 [Compound 85, (2S,4R)-1-(2-(3-acetyl-5-(pyridazin-4-yl)-1H-indol-1-yl)acetyl)-N-(4-(aminomethyl)phenyl)-4-fluoropyrrolidine-2-carboxamide]
  IC50: > 10 µM

## NC(=O)c1nn(CC(=O)N2C[C@H](F)C[C@H]2C(=O)Nc2ccc3cn[nH]c3c2)c2ccc(-c3ccnnc3)cc12 [Compound 86, 1-(2-((2S,4R)-2-(1H-indazol-6-ylcarbamoyl)-4-fluoropyrrolidin-1-yl)-2-oxoethyl)-5-(pyridazin-4-yl)-1H-indazole-3-carboxamide]
  IC50: > 10 µM

## CC(=O)c1cn(CC(=O)N2C[C@H](F)C[C@H]2C(=O)Nc2cncc(Cl)n2)c2ccc(-c3ccnnc3)cc12 [Compound 88, (2S,4R)-1-(2-(3-acetyl-5-(pyridazin-4-yl)-1H-indol-1-yl)acetyl)-N-(6-chloropyrazin-2-yl)-4-fluoropyrrolidine-2-carboxamide]
  IC50: < 1 µM

## NC(=O)c1nn(CC(=O)N2C[C@H](F)C[C@H]2C(=O)Nc2cncc(Cl)n2)c2ccc(-c3ccnnc3)cc12 [Compound 89, 1-(2-((2S,4R)-2-(6-chloropyrazin-2-ylcarbamoyl)-4-fluoropyrrolidin-1-yl)-2-oxoethyl)-5-(pyridazin-4-yl)-1H-indazole-3-carboxamide]
  IC50: < 1 µM

## NC(=O)c1nn(CC(=O)N2C[C@H](F)C[C@H]2C(=O)Nc2ccc(F)c(-c3nnc4n3CCCCC4)c2)c2ccc(-c3ccnnc3)cc12 [Compound 91, 1-(2-((2S,4R)-4-fluoro-2-(4-fluoro-3-(6,7,8,9-tetrahydro-5H-[1,2,4]triazolo[4,3-a]azepin-3-yl)phenylcarbamoyl)pyrrolidin-1-yl)-2-oxoethyl)-5-(pyridazin-4-yl)-1H-indazole-3-carboxamide]
  IC50: > 10 µM
